The values that follow come from US10689354B2, “Aminoazole derivative” (Teijin Pharma Limited, priority 2015, dated 2020).

Assay [1] concerns the target T1, androgen receptor (AR-LBD) (Rattus norvegicus, UniProt P15207).
T1 construct: 5 μL of 2×AR-LBD/Fluoromone AL Red Complex contained in the kit; purchased Invitrogen
T1 sequence (P15207 651-882 limits assumed): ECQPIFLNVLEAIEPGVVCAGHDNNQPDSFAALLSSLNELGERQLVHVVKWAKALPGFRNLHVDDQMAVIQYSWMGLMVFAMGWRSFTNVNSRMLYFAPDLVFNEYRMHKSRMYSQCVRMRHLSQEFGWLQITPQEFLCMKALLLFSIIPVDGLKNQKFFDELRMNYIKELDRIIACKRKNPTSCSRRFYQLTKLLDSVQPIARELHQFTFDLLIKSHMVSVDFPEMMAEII
The assay can be described thus: Evaluation of androgen receptor affinity (PolarScreen Androgen Receptor Competitor Assay Kit, Red; fluorescence polarization). The settings on record: 22° C. for 5 hours, relative to binding rate of 1 μM DHT, read-out: AR affinity (pEC50) (converted). In short, it runs like this: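 Duplicate wells of test compound were mixed with the kit's rat AR-LBD–Fluoromone AL Red tracer complex and left 5 hours at 22 °C before polarization was read. A 4-parameter fit gave pEC50, with binding rate referenced to 1 μM dihydrotestosterone.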
For orientation: Fluorescence polarisation rises when a labelled molecule tumbles more slowly, as on binding a larger partner.

Another assay deals with T2, human androgen receptor (Homo sapiens, UniProt P10275).
T2 construct: expressed in transfected cells; host or cells: HEK293
T2 sequence (P10275 1-920): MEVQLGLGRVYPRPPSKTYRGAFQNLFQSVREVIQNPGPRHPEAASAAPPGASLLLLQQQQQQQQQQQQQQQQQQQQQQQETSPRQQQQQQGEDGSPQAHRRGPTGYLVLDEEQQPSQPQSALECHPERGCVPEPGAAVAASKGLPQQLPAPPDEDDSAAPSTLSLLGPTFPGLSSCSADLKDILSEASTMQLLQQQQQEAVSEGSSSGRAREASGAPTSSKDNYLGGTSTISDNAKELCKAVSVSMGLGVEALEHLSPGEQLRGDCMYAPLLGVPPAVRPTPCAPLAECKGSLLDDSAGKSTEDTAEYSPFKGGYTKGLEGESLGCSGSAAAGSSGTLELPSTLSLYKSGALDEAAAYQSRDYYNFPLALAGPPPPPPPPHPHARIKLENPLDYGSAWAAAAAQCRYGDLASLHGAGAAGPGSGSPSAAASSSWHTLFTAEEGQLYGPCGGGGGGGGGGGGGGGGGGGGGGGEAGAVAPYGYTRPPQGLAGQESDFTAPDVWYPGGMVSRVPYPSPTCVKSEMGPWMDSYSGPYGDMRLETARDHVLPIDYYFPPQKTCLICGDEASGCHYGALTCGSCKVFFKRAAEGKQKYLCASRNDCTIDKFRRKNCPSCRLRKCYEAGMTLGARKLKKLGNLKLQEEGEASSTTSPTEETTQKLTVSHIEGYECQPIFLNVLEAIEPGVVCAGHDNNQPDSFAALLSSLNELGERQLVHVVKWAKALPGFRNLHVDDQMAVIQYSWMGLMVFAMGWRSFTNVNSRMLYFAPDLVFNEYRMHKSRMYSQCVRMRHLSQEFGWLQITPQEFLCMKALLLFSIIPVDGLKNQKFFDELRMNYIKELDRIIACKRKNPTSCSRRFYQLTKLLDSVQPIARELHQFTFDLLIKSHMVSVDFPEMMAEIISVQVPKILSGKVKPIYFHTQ
The assay can be described thus: Reporter assay of an androgen receptor responsive sequence (luciferase, transiently transfected HEK293 cells). The assay is classed as cell-based. The settings on record: 24 hours incubation, relative to activity of 100 nM DHT, read-out: AR transcriptive activity (pEC50) (converted). As for the experimental part:
Reporter Assay of an Androgen Receptor Responsive Sequence
To examine the agonist activity of compounds for androgen, a reporter assay using an androgen receptor responsive sequence was conducted.
Using Lipofectamine 2000 (Invitrogen), a plasmid mixture (pGL4-ARE (200 ng/well), pcDNA3-hAR (20 ng/well), pRL-TK (Promega) (150 ng/well)) was transiently transfected into HEK293 cells. The contents of the plasmid (mixture) are as follows:
pGL4-ARE is a reporter plasmid containing firefly luciferase sequence under the control of androgen receptor responsive sequence; pcDNA3-hAR is a plasmid containing full-length sequence of human androgen receptor under the constant control of CMV promoter; pRL-TK is a plasmid containing Renilla Luciferase sequence under the control of herpes simplex virus thymidine kinase and used as an internal standard for evaluations of transfection efficiency and compound toxicity.
After the incubation of Lipofectamine 2000 and the plasmid mixture in Opti-MEM for 20 minutes, the mixture was mixed with a cell suspension prepared with Opti-MEM in the similar way, and the cell suspension was plated to a 96-well plate at 20000 cells/well. The transfection was conducted by incubating the plates under the condition of 5% CO2 at 37° C. for 3 hours. Three hours after the transfection, the culture medium was removed and a compound solution prepared by DMEM supplemented with 5% FBS and treated with charcoal was added, and the mixture was incubated under the condition of 5% CO2 at 37° C. for 24 hours. After the incubation with the compound, luciferase activities were measured with a luminometer using Dual-Glo™ Luciferase Assay System (Promega). The measurement of the luciferase activities was performed in accordance with the protocol recommended by Promega. The activity of the compound was determined by comparing to the activity of 100 nM of DHT, and quantified the logarithm value (pEC50) of reciprocal value of the effective concentration of the compound which is equal to 50% of the activity value by applying a 4 parameter goodness-of-fit calculation.
A general note: Reporter assays use an easily measured gene product as a stand-in for the process of interest.

Structures are written as SMILES. A value given as a limit tells only on which side of the number the result lay.

On to `Cc1sc(N(CCc2ccc(C#N)cc2)Cc2ccc(OC(F)(F)F)cc2)nc1C(=O)NS(=O)(=O)C1CC1` [Compound 721, 2-[2-(4-cyanophenyl)ethyl-[[4-(trifluoromethoxy)phenyl]methyl]amino]-N-cyclopropylsulfonyl-5-methyl-thiazole-4-carboxamide], for which the figures for the EC50 (in assay [1]; at human androgen receptor) were 158 nM and greater than 10000 nM, respectively.

In the case of `COc1cccc(CN(c2ccc(C#N)cc2)c2nc(C(=O)NS(C)(=O)=O)c(C)s2)c1` [Compound 3, 2-[4-cyano-N-[(3-methoxyphenyl)methyl]anilino]-5-methyl-N-methylsulfonyl-thiazole-4-carboxamide], the EC50 is 63.1 nM in assay [1] and 126 nM at human androgen receptor.

Take `Cc1oc(N(CCc2ccc(Cl)cc2)Cc2ccccc2OC(F)F)nc1C(=O)NS(C)(=O)=O` [Compound 543, 2-[2-(4-chlorophenyl)ethyl-[[2-(difluoromethoxy)phenyl]methyl]amino]-5-methyl-N-methylsulfonyl-oxazole-4-carboxamide]: the EC50 in assay [1] was 50.1 nM; at human androgen receptor it was 1260 nM.

For `Cc1sc(N(Cc2cccc(Cl)c2)c2ccc(C#N)cc2)nc1C(=O)NS(C)(=O)=O` [Compound 18, 2-[N-[(3-chlorophenyl)methyl]-4-cyano-anilino]-5-methyl-N-methylsulfonyl-thiazole-4-carboxamide], the figures for the EC50 (in assay [1]; on human androgen receptor) were 25.1 nM and 50.1 nM, respectively.

Turning to `Cc1sc(N(CCc2ccc(Cl)cc2)Cc2cccc(OC(F)(F)F)c2)nc1C(=O)NS(C)(=O)=O` [Compound 145, 2-[2-(4-chlorophenyl)ethyl-[[3-(trifluoromethoxy)phenyl]methyl]amino]-5-methyl-N-methylsulfonyl-thiazole-4-carboxamide], the values for the EC50 (in assay [1]; on human androgen receptor) were 50.1 nM and 316 nM, respectively.

In the case of `Cc1sc(N(Cc2ccc(OC(F)(F)F)cc2)c2ccc(C#N)cc2)nc1C(=O)NS(=O)(=O)Cc1ccncc1` [Compound 500, 2-[4-cyano-N-[[4-(trifluoromethoxy)phenyl]methyl]anilino]-5-methyl-N-(4-pyridylmethylsulfonyl)thiazole-4-carboxamide], the results for the EC50 (in assay [1]; at human androgen receptor) were 20 nM and 126 nM, respectively.

Regarding `CS(=O)(=O)NC(=O)c1nc(N(Cc2cc3ccccc3s2)c2ccc(C#N)cc2)sc1Br` [Compound 609, 2-[N-(benzothiophen-2-ylmethyl)-4-cyano-anilino]-5-bromo-N-methylsulfonyl-thiazole-4-carboxamide], the EC50 was 31.6 nM in assay [1] and 39.8 nM at human androgen receptor.

For the compound `Cc1sc(N(CCCOCc2ccccc2)c2ccc(C#N)cc2)nc1C(=O)NS(C)(=O)=O` [Compound 359, 2-[N-(3-benzyloxypropyl)-4-cyano-anilino]-5-methyl-N-methylsulfonyl-thiazole-4-carboxamide], the EC50 is 126 nM in assay [1] and greater than 10000 nM on human androgen receptor.

Turning to `Cc1sc(N(CC[C@H]2CC[C@@H](O)C2)c2ccc(C#N)cc2)nc1C(=O)NS(C)(=O)=O` (racemic) [Compound 436, 2-[4-cyano-N-[2-[cis-3-hydroxycyclopentyl]ethyl]anilino]-5-methyl-N-methylsulfonyl-thiazole-4-carboxamide], the figures for the EC50 (in assay [1]; on human androgen receptor) were 501 nM and 1580 nM, respectively.

As to `Cc1sc(N(CCC2CCCCC2)c2ccc(C#N)cc2)nc1C(=O)NS(C)(=O)=O` [Compound 407, 2-[4-cyano-N-(2-cyclohexylethyl)anilino]-5-methyl-N-methylsulfonyl-thiazole-4-carboxamide], the EC50 in assay [1] is 50.1 nM; at human androgen receptor, 200 nM.

As to `Cc1sc(N(Cc2ccc(Cl)cc2Cl)c2ccc(C#N)cc2)nc1C(=O)NS(C)(=O)=O` [Compound 413, 2-[4-cyano-N-[(2,4-dichlorophenyl)methyl]anilino]-5-methyl-N-methylsulfonyl-thiazole-4-carboxamide], the results for the EC50 (in assay [1]; at human androgen receptor) were 25.1 nM and 501 nM, respectively.

For the compound `Cc1sc(N(Cc2cccc(-n3cccn3)c2)c2ccc(C#N)cc2)nc1C(=O)NS(C)(=O)=O` [Example 219, 2-[4-cyano-N-[(3-pyrazol-1-ylphenyl)methyl]anilino]-5-methyl-N-methylsulfonyl-thiazole-4-carboxamide], the EC50 in assay [1] was 63.1 nM; at human androgen receptor, 1580 nM.

Consider `Cc1oc(N(CCc2ccc(Cl)cc2)CC[C@@H]2CCCC[C@H]2O)nc1C(=O)NS(C)(=O)=O` (racemic) [Compound 547, 2-[2-(4-chlorophenyl)ethyl-[2-[trans-2-hydroxycyclohexyl]ethyl]amino]-5-methyl-N-methylsulfonyl-oxazole-4-carboxamide], for which the EC50 is 316 nM in assay [1] and 2510 nM at human androgen receptor.

For the compound `COCCCS(=O)(=O)NC(=O)c1nc(N(Cc2ccc(C(F)(F)F)nc2)c2ccc(C#N)cc2)sc1C` [Compound 164, 2-[4-cyano-N-[[6-(trifluoromethyl)-3-pyridyl]methyl]anilino]-N-(3-methoxypropylsulfonyl)-5-methyl-thiazole-4-carboxamide], the EC50 in assay [1] is 251 nM; on human androgen receptor, 631 nM.

Regarding `Cc1oc(N(Cc2ccc(OC(F)(F)F)cc2)c2ccc(C#N)cc2)nc1C(=O)NS(C)(=O)=O` [Compound 607, 2-[4-cyano-N-[[4-(trifluoromethoxy)phenyl]methyl]anilino]-5-methyl-N-methylsulfonyl-oxazole-4-carboxamide], the EC50 in assay [1] was 39.8 nM; at human androgen receptor it was 5010 nM.

As to `CS(=O)(=O)NC(=O)c1nc(N(Cc2ccccc2)c2ccc(C#N)cc2)sc1Cl` [Compound 657, 2-(N-benzyl-4-cyano-anilino)-5-chloro-N-methylsulfonyl-thiazole-4-carboxamide], the EC50 in assay [1] was 31.6 nM; on human androgen receptor, 50.1 nM.

In the case of `Cc1sc(N(Cc2ccccc2)c2ccc(C#N)cc2)nc1C(=O)NS(=O)(=O)C1CC1` [Compound 363, 2-(N-benzyl-4-cyano-anilino)-N-cyclopropylsulfonyl-5-methyl-thiazole-4-carboxamide], the EC50 is 63.1 nM in assay [1] and 1260 nM on human androgen receptor.

Take `Cc1sc(N(Cc2cc(F)ccc2F)c2ccc(C#N)cc2)nc1C(=O)NS(C)(=O)=O` [Compound 103, 2-[4-cyano-N-[(2,5-difluorophenyl)methyl]anilino]-5-methyl-N-methylsulfonyl-thiazole-4-carboxamide]: the EC50 is 158 nM in assay [1] and 316 nM at human androgen receptor.

In the case of `CS(=O)(=O)NC(=O)c1nc(N(Cc2ccc(Cl)cc2)c2ccc(C#N)cc2)oc1C1CC1` [Compound 646, 2-[N-[(4-chlorophenyl)methyl]-4-cyano-anilino]-5-cyclopropyl-N-methylsulfonyl-oxazole-4-carboxamide], the EC50 in assay [1] is 39.8 nM; at human androgen receptor, greater than 10000 nM.
